For data set [1], the system named is Mus musculus. Briefly: Anxiolytic activity in Albino mouse assessed as increase in number of central zone crossing at […], po administered through intragastric tube measured after 40 mins by elevated plus maze test. In kind it is functional, organism-based.
The subject of data set [2] is Mus musculus. Briefly: Anxiolytic activity in Albino mouse assessed as increase in number of open arm entries at […], po administered through intragastric tube measured after 40 mins by elevated plus maze test. In kind it is functional, organism-based.
In data set [3] the test system is Mus musculus. Briefly: Effect on memory formation in Albino mouse assessed as memory of negative experience by measuring dark room entry at […], po administered through intragastric tube measured after 7 days by conditioned avoidance test. In kind it is functional, organism-based. As to conditions: time 7.0 day.
Data set [4] deals with Mus musculus. In words: Nootropic activity in Albino mouse assessed as quick escape from restricting factor in aversive environment at […], po administered through intragastric tube measured after 7 days by conditioned avoidance test. In kind it is functional, organism-based. Conditions: time 7.0 day.
In data set [5] the test system is Mus musculus. In words: Anxiolytic activity in Albino mouse assessed as increase in motor activity by measuring increase in number of square crossing at […], po administered through intragastric tube measured after 40 mins by open field test. In kind it is functional, organism-based.
Data set [6] has as its system Mus musculus. In words: Anxiolytic activity in Albino mouse assessed as rapid open arm entry at […], po administered through intragastric tube measured after 40 mins by elevated plus maze test. In kind it is functional, organism-based.
Data set [7] concerns Mus musculus. Briefly: Anxiolytic activity in Albino mouse assessed as increase in time spent in open arm entries at […], po administered through intragastric tube measured after 40 mins by elevated plus maze test. In kind it is functional, organism-based.
The nature of data set [8]: Toxicity in po dosed female Albino mouse. In kind it is organism-based. Conditions: in vivo.
For data set [9], the system named is Mus musculus. Briefly: Antidepressant activity in Albino mouse with social depression assessed as increase in interaction frequency with partner mouse at […], po administered through intragastric tube measured after 40 mins by social interaction test. In kind it is functional, organism-based.
The subject of data set [10] is Mus musculus. Briefly: Antidepressant activity in Albino mouse with social depression assessed as increase in time of interaction with partner mouse at […], po administered through intragastric tube measured after 40 mins by social interaction test. In kind it is functional, organism-based.

Where “and” joins values, the source holds several entries; their conditions need not be identical. Identical values can stand only once. Calls of active or inactive are those of the source. The calls are words filed in the database; no cut-off is given here.

Take `CSCCc1c(O)nc(SCCN2CCCCC2)[nH]c1=O`: the result in the data set with Mus musculus [1] and in the data set on Mus musculus [2] was Active. The result in the data set with Mus musculus [3] and with Mus musculus [4] was inactive.
Take `CSCCSc1nc(O)c(C(C)C)c(=O)[nH]1`: the outcome in the data set with Mus musculus [5], with Mus musculus [6], in the data set with Mus musculus [1], in the data set on Mus musculus [2] and with Mus musculus [3] was Active. Further, the outcome in the data set on Mus musculus [4] was inactive.
In the case of `CC(C)CCc1c(O)nc(SCCN2CCCC2)[nH]c1=O`, the outcome with Mus musculus [6] and in the data set with Mus musculus [3] was inactive.
`CSCCc1c(O)nc(SCCN(C)C)[nH]c1=O`: the result in the data set with Mus musculus [5] and in the data set on Mus musculus [3] was inactive. The outcome in the data set on Mus musculus [1] and in the data set on Mus musculus [2] was Active.
Regarding `CC(C)c1c(O)nc(N2CCSCC2)[nH]c1=O`, the outcome in the data set with Mus musculus [6], in the data set on Mus musculus [1], in the data set on Mus musculus [2], in the data set with Mus musculus [7] and with Mus musculus [4] was Active. The result with Mus musculus [3] was inactive.
For the compound `CC(C)c1c(O)nc(SCCN(C)C)nc1O`, the outcome in the data set with Mus musculus [6], in the data set with Mus musculus [1], in the data set with Mus musculus [2], in the data set with Mus musculus [7] and with Mus musculus [3] was Active. For the same compound, the outcome in the data set with Mus musculus [4] was inactive.
For the compound `CC(C)CCc1c(O)nc(SCCN(C)C)[nH]c1=O`, the outcome in the data set on Mus musculus [3] and in the data set on Mus musculus [4] was inactive.
Regarding `CCCC(C)c1c(O)nc(SCCN(C)C)[nH]c1=O` (stereo unspecified), the outcome in the data set on Mus musculus [5], in the data set on Mus musculus [6], in the data set with Mus musculus [1], in the data set on Mus musculus [2], in the data set on Mus musculus [7] and in the data set on Mus musculus [4] was Active. Also, in the data set with Mus musculus [3], the result was inactive.
Turning to `CCN(CC)CCSc1nc(O)c(CCC(C)C)c(=O)[nH]1`, the result with Mus musculus [5] was Active. For the same compound, the result in the data set with Mus musculus [6] and in the data set with Mus musculus [3] was inactive.
Regarding `CC(C)CCc1c(O)nc(SCCN2CCCCC2)[nH]c1=O`, the outcome in the data set on Mus musculus [6] and in the data set on Mus musculus [3] was inactive. Further, the result in the data set with Mus musculus [4] was Active.
`CCCC(C)c1c(O)nc(SCCN2CCCC2)[nH]c1=O` (stereo unspecified): the result in the data set with Mus musculus [5] and in the data set on Mus musculus [3] was inactive. The result with Mus musculus [1], in the data set with Mus musculus [2] and in the data set on Mus musculus [7] was Active.
With `CCN(CC)CCSc1nc(O)c(C(C)C)c(O)n1`, the result in the data set on Mus musculus [6], in the data set on Mus musculus [7] and in the data set on Mus musculus [3] was Active.
In general, LD50 refers to the dose expected to kill half of the subjects tested. As to `CC(C)c1c(O)nc(SCCN2CCCC2)[nH]c1=O.Cl`, the outcome in the data set on Mus musculus [5] was Active. Moreover, the outcome in the data set with Mus musculus [3] was inactive. In data set [8] (po), the LD50 is 544 mg kg-1 and 1563 umol/Kg.
As for `CCN(CC)CCSc1nc(O)c(CCSC)c(=O)[nH]1`, the result with Mus musculus [5] and in the data set on Mus musculus [4] was Active. Moreover, the result in the data set with Mus musculus [6] and in the data set on Mus musculus [3] was inactive.
Take `CCCC(C)c1c(O)nc(SCCN2CCCCC2)[nH]c1=O` (stereo unspecified): the result in the data set with Mus musculus [6] and with Mus musculus [3] was inactive. In addition, in the data set on Mus musculus [2], the result was Active.
For `CC(C)c1c(O)nc(SCCN2CCCCC2)[nH]c1=O`, the result in the data set with Mus musculus [6], with Mus musculus [1], with Mus musculus [2], in the data set on Mus musculus [7] and in the data set with Mus musculus [3] was Active.
Take `CCCC(C)c1c(O)nc(SCCN(CC)CC)[nH]c1=O.Cl` (stereo unspecified): the result in the data set with Mus musculus [6], with Mus musculus [1], in the data set with Mus musculus [2], in the data set on Mus musculus [7], in the data set with Mus musculus [9] and in the data set on Mus musculus [10] was Active. Moreover, the result with Mus musculus [3] and in the data set on Mus musculus [4] was inactive. Further, the LD50 in data set [8] (female, Albino, read-out: LD50) is 1840 mg/kg and 5720 µmol/kg.
In the case of `CSCCc1c(O)nc(SCCN2CCCC2)[nH]c1=O`, the result in the data set with Mus musculus [5] and in the data set with Mus musculus [3] was inactive. For the same compound, the result with Mus musculus [6], in the data set with Mus musculus [1], in the data set with Mus musculus [2] and in the data set on Mus musculus [7] was Active.

These data come from ChEMBL document CHEMBL5344408, “Pyrimidine thioethers: A novel class of antidepressant agents, endowed with anxiolytic, performance enhancing and nootropic activity” (Eur J Med Chem, 2023).
